# Experimental data from patent publication US9155751B2, “Solution for tissue adhesion prevention and method for tissue adhesion prevention” (THE UNIVERSITY OF TOKYO, priority 2005, dated 2015).
# Values joined by “and” are separate entries in the source; they are usually repeats but may differ in a detail not shown here. Equal entries are not always repeated. “Also recorded” adds a separate entry of the source.
# Legend:
# [1] = system: HepG2 cells; experiment: HepG2 cell survival after air-dry (neutral red absorbance); format: cell-based, human; conditions: for cell survival rate: activated with sample solution 37 degrees C 1 hour, air-dry 3 minutes, control plate without air-dry = 100%; for cell survival rate in control plates (effect of each reagent on cells): air-dry not performed, control plate for PBS (+) = 100%; for cell protection effect: plates air-dried for 3 minutes
# Description: As cells, HepG2 cells (human hepatoma-derived cell lines) were used.
# For all reagents other than HepG2 cells, AA-2G, trehalose, DMEM media, FCS, neutral red, reagent grade chemicals were used. In addition, as sample solution in which HepG2 cells were activated, 4 kinds of solution; PBS (+) solution, 2.5 mM AA-2G solution, 132 mM trehalose solution, 2.5 mM AA-2G+132 mM trehalose mixed solution were prepared.
# A reagent ascorbic acid-2-glucoside (AA2G; Hayashihara Biochemical Labs., Inc.) was dissolved in distilled water to obtain 2.5 mM AA-2G solution. And a highly purified hydrated crystal trehalose in powder (Reagent trehalose; Hayashihara Biochemical Labs., Inc.) was dissolved in distilled water to obtain 132 mM trehalose solution. The reagents ascorbic acid-2-glucoside and the highly purified hydrated crystal trehalose in powder were dissolved in distilled water to obtain 2.5 mM AA-2G+132 mM trehalose mixed solution. Then, pH and osmolarity of these 4 kinds of sample solutions were adjusted. Adjustment of osmolarity of 2.5 mM AA-2G solution, 132 mM trehalose solution, 2.5 mM AA-2G+132 mM trehalose mixed solution was performed by adjusting with sodium chloride of PBS (+) to be isotonic.
# The pH and osmolarity of each sample after adjustment were as follows; pH 7.2 and 279 mOsm for PBS (+) solution, pH 6.8 and 265 mOsm for 2.5 mM AA-2G solution, pH 7.2 and 283 mOsm for 132 mM trehalose solution and pH 7.0 and 282 mOsm for 2.5 mM AA-2G+132 mM trehalose mixed solution.
# Then, HepG2 cells were seeded with 4×10^4 cells/well each to four 12-well plates, and incubated in DMEM media (Nissui Pharmaceutical Co., Ltd) containing 10% FCS (Gibco) for 4 days. Then the DMEM media containing 10% FCS were replaced with 4 kinds of sample solutions; PBS (+) solution, 2.5 mM AA-2G solution, 132 mM trehalose solution, 2.5 mM AA-2G+132 mM trehalose mixed solution, and activated at 37 degrees C. for 1 hour.
# Two control plates and two test plates were prepared for cells activated with 4 kinds of sample solutions, respectively. For each two test plates, one plate was air-dried for 5 minutes and other plate was air-dried for 3 minutes. The two control plates were not air-dried.
# Then, cells of each plate was replaced with no serum DMEM media and incubated at 37 degrees C. for 1 hour. After replacing with 0.02% neutral red (Wako Pure Chemical Industries, Ltd, hereinafter referred to NR), they were activated at 37 degrees C. for 40 minutes. After removal of NR solution and addition of PBS (+), they were left to stand at 37 degrees C. for 40 minutes, PBS (+) was removed and they were air-dried for 5 minutes. They were added NR extracts and left to stand at 37 degrees C. for 10 minutes, then each sample was distributed over 96-well plate and the absorbance at the wavelength of 570 nm was measured.
# The absorbance of the control plates to which air-dry was not performed was considered as cell survival rate of 100%, and the cell survival rate of the test plates to which air-dry was performed for 3 minutes was calculated. The results are shown in the graph indicating changes in cell survival rate by air-dry in FIG. 1.
# Also, the cell survival rates of control plates for each sample solution to which air-dry was not performed were calculated. The results are shown in the graph indicating the effect of each reagent on cells in FIG. 2.
# [2] = system: abdominal adhesion model using rabbits; experiment: Rabbit abdominal adhesion model by desiccating intestine surface during abdominal surgery (Example 2); format: in vivo, New Zealand White rabbits; conditions: for Clinical findings: 2% trehalose solution sprayed on whole intestines several times during laparotomy
# Description: In this example, abdominal adhesion model was prepared using rabbits by desiccating surface of intestines during abdominal surgery, and the preventive effect of intestine adhesion by trehalose was discussed.
# As trehalose, powder trehalose (Reagent trehalose; Hayashihara Biochemical Labs., Inc.) and ^+NaCl were dissolved in sterile distilled water of 250 mL as 2%; solution, sterilized by filtration with filter (Millex; Millpore Co., Bedford) and poured to sterile container and stored at room temperature. As test animals, five female New Zealand White rabbits weighing 2.85 to 3.2 kg aged of 14 weeks (Std:NZW, Japan SLC, Inc., Shizuoka) were used. The rabbits were kept in animal laboratory (room temperature of 24+/−1 degrees C., humidity of 30 to […]) in The University of Tokyo, Graduate School of Agricultural and Life Sciences Veterinary Medical Center. The rabbits were acclimatized for 1 week after purchase, and during this period blood test (complete blood count, BUN, Cre, ALT, ALP) and general x-ray test were performed to confirm that abnormality was not present. The experiment of this example was performed according to the Manual of animal experiment of University of Tokyo.
# (§1) The experiment of this example was performed as follows.
# (§2) As anesthesia, 5 mg/kg of ketamine (KETALAL 50; Sankyo Lifetech Co., Ltd., Tokyo) and 0.1 mg/kg of medetomidine (DOMITOL; Meiji Seiyaku Co., Ltd., Tokyo) were intramuscularly injected as preoperative medication, and after intubation maintained with isoflurane (ISOFLU; Dainippon Pharmaceutical Co., Ltd., Osaka). Before operation, 10 mg/kg of enrofloxacin (BAYTRIL; Bayer Medical Ltd., Tokyo) was subcutaneously administered as antibiotics, and during operation 10 mL/kg/hr of lactated Ringer's solution (FUSO; Fuso Pharmaceutical Industries, Ltd., Osaka) was intravenously administered, After operation, single dose of 20 μg/kg of buprenorphine (LEPETAN; Otsuka Pharmaceutical Co., Ltd., Tokyo) as analgesics was subcutaneously administered. During anesthesia, ECG, ETCO2 and SpO2 were monitored and maintained within their normal variations.
# Three rabbits among the five rabbits were randomized to the control group, and the other two rabbits were classified into the trehalose group. For the five rabbits, after disinfection of operative field, abdominal median incision was performed and intestines were exposed as far as possible and serum was wiped with gauze. For control group (three rabbits) they were left desiccated and for trehalose group (two rabbits) whole intestines were sprayed with trehalose for several times. During this period, ovariohysterectomy was performed according to given method. The time period of laparotomy was 30 to 60 minutes for both groups. The 3-0 monofilament nylon fiber (Bear surgical suture; Bear Medic Corporation, Chiba) was used for ovariohysterectomy and closure of abdominal wall, and the 4-0 monofilament polyglyconate fiber (MAXON; Syneture Co., Ltd., Connecticut) was used for subcutaneous tissues and stapler (Manipler AZ-35W; Mani Inc., Tochigi) was used for skin suture. After operation, general condition and wounds were observed and they were killed by overdose of pentobarbital after 2 weeks. The adhesion status in peritoneal cavity was macroscopically observed and recorded as well as tissues of adhesion sites were removed as pathohistological test material and fixed in formalin.
# The clinical findings after 2 weeks and the macroscopic findings of adhesion status after laparotomy of each case are shown in Table 1.
# [3] = system: abdominal adhesion model using rabbits; experiment: Rabbit abdominal adhesion model by desiccating intestine surface during abdominal surgery (Example 3); format: in vivo, New Zealand White rabbits; parameters: key to Adhesion sites: greater omentum - rectum / Adhesion sites: greater omentum - stomach / Adhesion sites: greater omentum - small intestine / Adhesion sites: small intestine - rectum / Adhesion sites: abdominal wall - bladder / Adhesion sites: abdominal wall - fat / Adhesion sites: colon-fat / Adhesion sites: jejunum - abdominal wall / Adhesion sites: cecum - colon: non-adhesion: −; Adhesions of mild degree (abruption enabled): +; Adhesions of severe degree (abruption enabled): ++; Score-Total: scale not given here
# Description: In this example, abdominal adhesion model was prepared using rabbits by desiccating surface of intestines during abdominal surgery, and the preventive effect on intestine adhesion by trehalose was discussed.
# As trehalose, powder trehalose (Reagent trehalose; Hayashihara Biochemical Labs., Inc.) were dissolved in sterile distilled water of 250 mL as 7% solution, sterilized by filtration with filter (Millex; Millpore Co., Bed ford) and poured to sterile container and stored at room temperature.
# As test animals, 20 female New Zealand White rabbits weighing 2.6 to 3.2 kg aged of 14 weeks (Std:NZW, Japan SLC, Inc., Shizuoka) were used. The rabbits were kept in animal laboratory (room temperature of 24+/−1 degrees C., humidity of 30 to 70%) in The University of Tokyo, Graduate School of Agricultural and Life Sciences Veterinary Medical Center. The rabbits were acclimatized for 1 week after purchase, and during this period blood test (complete blood count, BUN, Cre, ALT, ALP) and general x-ray test were performed to confirm that abnormality was not present. The experiment of this example was performed according to the Manual of animal experiment of The University of Tokyo.
# as §1
# as §2, with “Seiyaku Ca,” for “Seiyaku Co.,”, “isoflurane (SOFLU” for “isoflurane (ISOFLU;”, “intravenously administered.” for “intravenously administered,”, “administered.” for “administered. During anesthesia, ECG, ETCO2 and SpO2 were monitored and maintained within their normal variations.”
# During anesthesia, ECG, ETCO2 and SpO2 were monitored and maintained within their normal variations.
# For the 20 rabbits, after disinfection of operative field, abdominal median incision was performed and intestines were exposed as far as possible and serum was wiped with gauze. Total ovariohysterectomy performed according to given method. Four section of ovarion arteries and veins were severed after being ligated with 4-0 mono filament polyglyconate suture (MAXON; Syneture Co., Ltd., Connecticut). Also, uterovaginal stump were sutured with 5-0 mono filament polyglyconate suture (MAXON; Syneture Co., Ltd., Connecticut), the 3-0 mono filament polyglyconate suture (MAXON; Syneture CO., Ltd., Connecticut) was used for closure of abdominal wall, and the 4-0 mono filament polyglyconate suture (MAXON; Syneture Co., Ltd., Connecticut) was used for subcutaneous tissues and stapler (ManiplerAZ-35W; Mani Inc., Tochigi) was used for skin suture.
# Ten rabbits among the twenty rabbits were randomized to the control group, and the other ten rabbits were classified into the trehalose group.
# The control group (10 rabbits) was left desiccated. The time period of laparotomy was 60 minutes.
# For the trehalose group, trehalose solution was sprayed over the whole abdominal cavities every 15 minutes (0 minutes, 15 minutes, 30 minutes, 45 minutes, 60 minutes after starting the operation). The time period of laparotomy was 60 minutes. After operation, general condition and wounds were observed and rabbits were euthanized by excessive administration of pentobarbital two weeks after the operations.
# The adhesion status in peritoneal cavity was macroscopically observed and recorded as well as tissues of adhesion sites were removed as pathohistological test materials and fixed in formalin. The clinical findings after 2 weeks and the macroscopic findings of adhesion status after laparotomy of each case are shown in Table 2.
# [4] = 2% trehalose solution sprayed on whole intestines, macroscopic, 2 weeks after operation, individual rabbits
# [5] = 7% trehalose solution sprayed every 15 minutes, 60 min laparotomy, 2 weeks after, individual rabbits No. 1-10
structure (smiles),measurement,setting,value
"O=C1O[C@H]([C@@H](O)CO)C(O)=C1O[C@H]1O[C@H](CO)[C@@H](O)[C@H](O)[C@H]1O [2.5 mM AA-2G solution, ascorbic acid-2-glucoside]",cell survival rate,[1],61.8%
same,cell survival rate in control plates (effect of each reagent on cells),[1],101.6% and 101.5%
same,cell protection effect,[1],the cell protection effect was not observed
"OC[C@H]1O[C@H](O[C@H]2O[C@H](CO)[C@@H](O)[C@H](O)[C@H]2O)[C@H](O)[C@@H](O)[C@@H]1O [Trehalose, trehalose]",cell survival rate,[1],70.7%
same,cell survival rate in control plates (effect of each reagent on cells),[1]; listed as 132 mM trehalose solution,97.6% and 97.7%
same,cell protection effect,[1],the cell protection effect was observed
same,Clinical findings,"[2]; 2 weeks after operation, individual rabbits",Partial dehiscence; also recorded: No abnormal findings
same,Clinical findings,"[2]; 2 weeks after operation, individual rabbits, listed as trehalose",a part of skin suture site was removed and showed ulcer in 1 case
same,Findings after laparotomy: Adhesion of stump of uterus,[2]; [4],Present
same,Findings after laparotomy: Adhesion sites in intestines,[2]; [4],2 sites of adhesion and No significant
same,Findings after laparotomy: Adhesion sites in intestines,"[2]; 2% trehalose solution sprayed on whole intestines, macroscopic, 2 weeks after operation, individual rabbits, listed as trehalose",2 sites of mild adhesion were suspected in 1 rabbit and no significant adhesion was macroscopically observed
same,prevention of abdominal adhesion due to desiccation (conclusion),[2]; spray of 2% trehalose solution,would be effective for prevention of abdominal adhesion due to desiccation
same,cases with adhesions of mild and severe degree between abdominal organs,"[3]; 7% trehalose solution spray, 10 rabbits, control 6 of 10",2 of 10
same,adhesion scores between organs (group),"[3]; 7% trehalose solution spray, 10 rabbits, control group +16",+3
same,Adhesion sites: abdominal wall - bladder,[3]; [5],−
same,Adhesion sites: abdominal wall - fat,[3]; [5],−
same,Adhesion sites: cecum - colon,[3]; [5],+ and − (9×)
same,Adhesion sites: colon-fat,[3]; [5],−
same,Adhesion sites: greater omentum - rectum,[3]; [5],−
same,Adhesion sites: greater omentum - small intestine,[3]; [5],−
same,Adhesion sites: greater omentum - stomach,[3]; [5],−
same,Adhesion sites: jejunum - abdominal wall,[3]; [5],−
same,Adhesion sites: small intestine - rectum,[3]; [5],− (9×) and ++
same,Score-Total,"[3]; adhesion score per rabbit, 7% trehalose solution spray, individual rabbits No. 1-10",1 and 0 (8×) and 2
same,prevention of abdominal adhesion due to desiccation (conclusion),[3]; spray of 7% trehalose solution,can obviously prevent and reduce adhesions
same,prevention ratio,"[3]; trehalose group versus control group adhesion score, Wilcoxon rank-sum test p<0.05",81%
